Where “and” joins values, the source holds several entries; their conditions need not be identical. Identical values can stand only once.

One test deals with T1, KCa3.1 (Homo sapiens, UniProt O15554).
T1 construct: expressed in transfected cells
Briefly: Excised inside-out patch-clamp on HEK-KCa3.1. The test is classed as biochemical. The protocol:
Our Isc results are consistent with VX-445 inhibiting KCa3.1 in HBEs. To directly assess this possibility, we initially carried out whole-cell patch-clamp studies on undifferentiated HBEs. […] Upon application of 10 µM VX-445, a majority of this current was inhibited, averaging 87 ± 4% (n = 3, P < 0.005; Fig. 3B). A summary of the current–voltage (I–V) relationship—normalized to cell capacitance—is shown in Fig. 3C, which also includes the whole-cell I–V in the presence of Tram-34. […] To ensure isolation of KCa3.1 currents and to more fully characterize this VX-445-dependent inhibition of KCa3.1, we utilized HEK cells heterologously expressing KCa3.1 (HEK-KCa3.1). Initially, we confirmed our results from HBEs, using whole-cell recordings, as above. […] In seven experiments, this inhibition averaged 58 ± 7% (P < 0.005). […] It is well recognized that drugs are carried to their targets in the blood bound to albumin, which ranges from 3.4 to 5.4%. Thus, we determined whether VX-445 (10 µM) would inhibit KCa3.1 expressed in HEK cells in the presence of 3.4% albumin. In four experiments, VX-445 inhibited an average of 51 ± 17% of the whole-cell KCa3.1 current, which is not different from that observed in the absence of albumin. To confirm the direct effect of VX-445 on KCa3.1, we utilized the excised, inside-out patch-clamp technique. The patch was then exposed to DCEBIO (100 µM) to further activate the channels ([34–37])—analogous to our Isc studies in HBEs. […] In three experiments, VX-445 inhibited an average of 63 ± 6% of the KCa3.1 current. Based on these experiments, we determined the apparent inhibitory constant, Ki for VX-445. For these experiments, patches were excised into saturating Ca^2+ (3 µM) to ensure maximal KCa3.1 activation. These studies were carried out in the absence of DCEBIO to eliminate the possibility that the inhibition observed was due to competition for the DCEBIO-binding site.
(§1) HEK cells stably expressing KCa3.1 (IK1, SK4), KCa2.3 (SK3), and KCa2.2 (SK2) were generated and cultured as previously described by us ([37], [66–71]).
(§2) HEK cells expressing the channel of interest were plated onto poly-L-lysine-coated glass coverslips 1–2 days prior to patch-clamp analysis. Electrophysiological recordings in the excised, inside-out, and whole-cell patch-clamp configurations were performed as recently described ([14]). For excised patch-clamp recordings, the pipette solution contained (in mM): 140 K-gluconate, 5 KCl, 1 CaCl2, 1 MgCl2, and 10 HEPES. The pH was adjusted to 7.2 with KOH. The bath solution contained (in mM): 145 K-gluconate, 5 KCl, 1.3 MgCl2, 10 HEPES, and 1 EGTA. Sufficient CaCl2 was added to obtain the desired free Ca^2+ concentration at a pH of 7.2 (adjusted with KOH). When recording KCa3.1 channels, ATP (300 µM) was added to the bath to diminish channel rundown ([73]). All recordings were carried out at a voltage of −100 mV, referenced to the extracellular compartment, as is standard. The apparent Ki and Hill coefficient for each CFTR corrector on KCa3.1, KCa2.3, and KCa2.2 were determined during a continuous recording by step-wise addition of increasing concentrations of compound and fitting the resultant relative remaining current to a Hill equation (Prism v. 10.1.0). The zero current level was determined by the addition of a 0 Ca^2+ solution (zero-added Ca^2+ plus 1 mM EGTA) at the end of the experiment. In the case of KCa3.1, TRAM-34, a known inhibitor of KCa3.1 ([45]), was used to confirm expression of the channel. For whole-cell experiments, pipettes contained (in mM): 145 K-gluconate, 10 EGTA, 7.5 CaCl2, 2 MgCl2, 3 mM NaATP, and 10 HEPES. The bath solution contained (in mM): 140 K-gluconate, 5 KCl, 1.0 MgCl2, 10 HEPES, and 2 CaCl2. Current–voltage relationships were determined by stepping from a holding potential of −80 mV to +80 mV in 20 mV increments for 400 ms. […]

The target in a further test is KCa2.3 (Homo sapiens, UniProt Q9UGI6). In words: Excised inside-out patch-clamp on HEK cells expressing KCa2.3. It counts as biochemical. The protocol: (§3) As above, we performed excised patch-clamp recordings on HEK cells heterologously expressing KCa2.3 or KCa2.2, in order to assess the activity of C2 CFTR corrector compounds. […] In contrast, the subsequent addition of 10 µM VX-659 yielded an almost complete inhibition of KCa2.3 currents, averaging 91 ± 3% (n = 4).
Chain of KCa2.3 (Q9UGI6 whole entry): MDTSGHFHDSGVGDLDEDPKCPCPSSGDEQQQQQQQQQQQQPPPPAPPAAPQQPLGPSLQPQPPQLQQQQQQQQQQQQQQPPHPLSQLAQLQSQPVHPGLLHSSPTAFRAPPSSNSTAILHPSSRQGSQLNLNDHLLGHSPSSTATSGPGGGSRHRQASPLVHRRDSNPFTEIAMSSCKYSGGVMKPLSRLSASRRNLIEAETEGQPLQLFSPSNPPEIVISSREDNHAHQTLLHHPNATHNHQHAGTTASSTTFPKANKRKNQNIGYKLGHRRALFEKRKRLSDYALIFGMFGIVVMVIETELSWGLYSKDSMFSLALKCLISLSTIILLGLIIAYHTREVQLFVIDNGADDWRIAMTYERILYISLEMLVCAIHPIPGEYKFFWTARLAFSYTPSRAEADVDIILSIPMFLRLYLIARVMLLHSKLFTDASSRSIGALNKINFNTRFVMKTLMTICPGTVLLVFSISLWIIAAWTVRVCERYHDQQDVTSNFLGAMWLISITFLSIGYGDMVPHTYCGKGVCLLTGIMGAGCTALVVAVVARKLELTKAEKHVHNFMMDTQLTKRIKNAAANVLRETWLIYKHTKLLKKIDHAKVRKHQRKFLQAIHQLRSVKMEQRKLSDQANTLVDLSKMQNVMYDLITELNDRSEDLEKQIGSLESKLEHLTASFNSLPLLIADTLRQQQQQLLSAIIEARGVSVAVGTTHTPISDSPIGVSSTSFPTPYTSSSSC
as §1
as §2, with “In the case of KCa3.1, TRAM-34, a known inhibitor of KCa3.1 ([45]), was used to confirm expression of the channel. For whole-cell experiments, pipettes contained (in mM): 145 K-gluconate, 10 EGTA, 7.5 CaCl2, 2 MgCl2, 3 mM NaATP, and 10 HEPES. The bath solution contained (in mM): 140 K-gluconate, 5 KCl, 1.0 MgCl2, 10 HEPES, and 2 CaCl2.” left out, “ms. The middle 300 ms of each trace was selected to avoid any influence of capacitive transients, and average currents were calculated for each voltage via the I–V tool in Clampfit.” for “ms.”

In the next test the target is KCa2.2 (Rattus norvegicus, UniProt P70604). Briefly: Excised inside-out patch-clamp on HEK cells expressing KCa2.2. The test is classed as biochemical. The note with it: 1 µM free Ca2+. As to the method: as §3, §1
Chain of KCa2.2 (P70604 whole entry): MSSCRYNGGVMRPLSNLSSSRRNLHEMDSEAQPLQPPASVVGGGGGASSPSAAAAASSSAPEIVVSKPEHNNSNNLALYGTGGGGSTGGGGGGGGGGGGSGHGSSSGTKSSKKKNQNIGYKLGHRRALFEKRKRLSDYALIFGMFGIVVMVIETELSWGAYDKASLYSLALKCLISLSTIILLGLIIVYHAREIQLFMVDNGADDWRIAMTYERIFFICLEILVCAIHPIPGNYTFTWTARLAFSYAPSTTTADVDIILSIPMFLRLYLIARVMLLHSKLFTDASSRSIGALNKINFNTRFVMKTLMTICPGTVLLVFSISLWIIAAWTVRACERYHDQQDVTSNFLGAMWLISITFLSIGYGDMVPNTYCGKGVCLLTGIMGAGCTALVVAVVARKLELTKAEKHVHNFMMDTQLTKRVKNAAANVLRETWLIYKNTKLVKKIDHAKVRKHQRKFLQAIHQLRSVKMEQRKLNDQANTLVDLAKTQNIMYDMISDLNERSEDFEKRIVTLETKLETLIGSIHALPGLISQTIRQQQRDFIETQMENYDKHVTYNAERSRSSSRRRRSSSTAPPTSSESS
HEK cells expressing the channel of interest were plated onto poly-L-lysine-coated glass coverslips 1–2 days prior to patch-clamp analysis. […] The apparent Ki and Hill coefficient for each CFTR corrector on KCa3.1, KCa2.3, and KCa2.2 were determined during a continuous recording by step-wise addition of increasing concentrations of compound and fitting the resultant relative remaining current to a Hill equation (Prism v. 10.1.0). The zero current level was determined by the addition of a 0 Ca^2+ solution (zero-added Ca^2+ plus 1 mM EGTA) at the end of the experiment. […] Current–voltage relationships were determined by stepping from a holding potential of −80 mV to +80 mV in 20 mV increments for 400 ms. The middle 300 ms of each trace was selected to avoid any influence of capacitive transients, and average currents were calculated for each voltage via the I–V tool in Clampfit. […]

In test [1] the test system is BKCa (KCa1.1, KCNMA1) channels. Further details: method as in PMID 38954478. The note with it: primary HBEs and HEK cells heterologously expressing the channel; cited from earlier work.

Take `C[C@@H]1CN(c2nc(-n3ccc(OCCC4(C(F)(F)F)CC4)n3)ccc2C(=O)NS(=O)(=O)c2ccccc2)C(C)(C)C1` [VX-659, bamocaftor]: the Hill coefficient is 1.8 on KCa3.1 (3 µM free Ca2+, absence of DCEBIO); 1.9 and 1.3 at KCa2.3 (1 µM free Ca2+); 1.6 and 2.1 on KCa2.2. Also, on KCa3.1 (3 µM free Ca2+, absence of DCEBIO, Hill fit, n = 4, read-out: apparent Ki), the Ki was 890 nM and 900 nM. In addition, the inhibition at 10 µM on KCa3.1 (10 µM compound after DCEBIO 100 µM, 1 µM free Ca2+, three experiments, read-out: inhibition of KCa3.1 current in excised patch) is 98 ± 1%; on KCa2.3 (read-out: inhibition of KCa2.3 currents), 91 ± 3%. Besides, at KCa3.1 (KCa3.1 versus KCa2.2 and KCa2.3), the “selectivity among KCNN gene family members” value is given as “inhibits all members of the KCNN gene family with a similar affinity”. On KCa3.1 ([VX-659] 0.3, Fig 4G single experiments), the relative remaining current is 89 and 100 and 78 and 88. In addition, in test [1], the “effect on BKCa” value is given as “weakly potentiates”.

Values taken from PMC12275099, “VX-445 (elexacaftor) inhibits chloride secretion across human bronchial epithelial cells by directly blocking KCa3.1 channels” (PNAS Nexus, 2025).
